The source of these data is ChEMBL document CHEMBL5360540, “Antitumor effect of 3-(quinolin-2-ylmethylene)-4,6-dimethyl-5-hydroxy-7-azaoxindole down-regulating the Gas6-Axl axis” (Eur J Med Chem, 2023).

Activity calls are given as the source filed them. The rule behind the calls is not given here.

The subject of series [1] is PANC-1. Kind of series: Antitumor activity against human PANC-1 cells xenografted in BALB/c nude mouse assessed as animal survival rate at 50 mg/kg, ip administered 3 times a week and measured for 100 days. To be noted: PANC-1, 2400 h, time 100 day. In kind it is functional.
Series [2] deals with PANC-1. Kind of series: Antitumor activity against human PANC-1 cells xenografted in BALB/c nude mouse assessed as reduction in tumor growth at 50 mg/kg, ip administered 3 times a week and measured on 30 days by caliper analysis. In kind it is functional, organism-based. As to conditions: time 30.0 day. (In xenograft studies the graft and the host belong to different species.)

Series [3] deals with Macrophage colony-stimulating factor 1 receptor (Homo sapiens, UniProt P07333). As to the kind of experiment: Inhibition of human CSF1R using MEK1 as substrate incubated for 40 mins by gamma33P-ATP based scintillation counter analysis.
Series [4] has as its target Platelet-derived growth factor receptor beta (Homo sapiens, UniProt P09619). As to the kind of experiment: Inhibition of human PDGFRbeta using MEK1 as substrate incubated for 40 mins by gamma33P-ATP based scintillation counter analysis.
Series [5] addresses Mast/stem cell growth factor receptor Kit (Homo sapiens, UniProt P10721). Kind of series: Inhibition of human c-Kit using MEK1 as substrate incubated for 40 mins by gamma33P-ATP based scintillation counter analysis.
Series [6] deals with PANC-1. As to the kind of experiment: Antitumor activity against human PANC-1 cells xenografted in BALB/c nude mouse assessed as animal survival rate at 3 mg/kg, ip administered 6 times a week and measured for 100 days. In kind it is functional. As to conditions: PANC-1, 2400 h, time 100 day.
The target of series [7] is T1, Receptor-type tyrosine-protein kinase FLT3 (Homo sapiens, UniProt P36888).
T1 sequence (P36888 whole entry): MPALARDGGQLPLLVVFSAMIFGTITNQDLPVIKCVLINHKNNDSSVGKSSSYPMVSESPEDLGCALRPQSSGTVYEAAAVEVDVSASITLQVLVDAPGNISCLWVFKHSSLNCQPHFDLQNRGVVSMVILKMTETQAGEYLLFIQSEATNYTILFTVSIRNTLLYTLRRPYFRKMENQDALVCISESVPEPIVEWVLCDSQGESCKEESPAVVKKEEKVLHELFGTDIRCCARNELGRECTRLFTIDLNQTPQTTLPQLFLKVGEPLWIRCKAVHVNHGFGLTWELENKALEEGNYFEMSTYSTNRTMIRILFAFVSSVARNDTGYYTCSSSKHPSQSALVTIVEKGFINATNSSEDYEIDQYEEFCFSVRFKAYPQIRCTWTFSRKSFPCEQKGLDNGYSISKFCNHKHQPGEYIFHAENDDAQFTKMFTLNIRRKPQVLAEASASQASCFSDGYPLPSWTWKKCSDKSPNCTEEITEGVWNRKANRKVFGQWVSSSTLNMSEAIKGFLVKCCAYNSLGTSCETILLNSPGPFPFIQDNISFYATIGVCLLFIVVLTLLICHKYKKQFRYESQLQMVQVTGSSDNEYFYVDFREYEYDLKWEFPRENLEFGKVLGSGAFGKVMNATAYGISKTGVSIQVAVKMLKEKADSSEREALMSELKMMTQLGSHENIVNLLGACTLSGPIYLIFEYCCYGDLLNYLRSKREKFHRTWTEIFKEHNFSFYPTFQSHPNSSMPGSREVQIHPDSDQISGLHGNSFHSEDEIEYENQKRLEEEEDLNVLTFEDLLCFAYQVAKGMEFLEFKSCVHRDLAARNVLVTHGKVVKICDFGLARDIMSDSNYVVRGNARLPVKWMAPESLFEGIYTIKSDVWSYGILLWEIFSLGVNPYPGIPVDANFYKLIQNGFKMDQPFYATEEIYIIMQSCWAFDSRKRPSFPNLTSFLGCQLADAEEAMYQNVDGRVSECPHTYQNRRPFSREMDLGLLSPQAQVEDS
Kind of series: Inhibition of human FLT3 using MEK1 as substrate incubated for 40 mins by gamma33P-ATP based scintillation counter analysis.

Series [8] concerns the target Epidermal growth factor receptor (Homo sapiens, UniProt P00533). Kind of series: Inhibition of human EGFR using MEK1 as substrate incubated for 40 mins by gamma33P-ATP based scintillation counter analysis.
Series [9] deals with Vascular endothelial growth factor receptor 2 (Homo sapiens, UniProt P35968). As to the kind of experiment: Inhibition of human VEGFR2 using MEK1 as substrate incubated for 40 mins by gamma33P-ATP based scintillation counter analysis.
The test system of series [10] is MCF7. As to the kind of experiment: Cytotoxicity against human MCF7 cells assessed as inhibition of cell growth at 30 uM incubated for 48 hrs by MTT assay relative to control. In kind it is functional. (In general: Tetrazolium dyes change colour on reduction, which living cells bring about.)
The test system of series [11] is A549. Kind of series: Cytotoxicity against human A549 cells assessed as inhibition of cell growth incubated for 48 hrs by MTT assay. It counts as functional, cell-based. To be noted: A549, 48 h.
A short description of series [12]: Safety index, ratio of IC50 for HEK293 cells to IC50 for human MDA-MB-231 cells. To be noted: HEK293 cells versus MDA-MB-231 cells, read-out: Ratio IC50. In kind it is toxicity.
Series [13] can be described thus: Safety index, ratio of IC50 for CHO-K1 cells to IC50 for human HT-29 cells. It counts as toxicity. As to conditions: Chinese hamster (CHO-K1), CHO-K1 cells versus HT-29 cells, read-out: Ratio IC50.
Series [14] relates to PANC-1. As to the kind of experiment: Cytotoxicity against human PANC-1 cells assessed as inhibition of cell growth at 30 uM incubated for 48 hrs by MTT assay relative to control. It counts as functional.
Series [15] is described as follows: Safety index, ratio of IC50 for CHO-K1 cells to IC50 for human A549 cells. It counts as toxicity. As to conditions: Chinese hamster (CHO-K1), CHO-K1 cells versus A549 cells, read-out: Ratio IC50.
Series [16] can be described thus: Safety index, ratio of IC50 for HEK293 cells to IC50 for human DU-145 cells. It counts as toxicity. As to conditions: HEK293 cells versus DU-145 cells, read-out: Ratio IC50.
Series [17] is described as follows: Safety index, ratio of IC50 for HEK293 cells to IC50 for human U-937 cells. In kind it is toxicity. As to conditions: HEK293 cells versus U-937 cells, read-out: Ratio IC50.
The subject of series [18] is U-937. As to the kind of experiment: Cytotoxicity against human U-937 cells assessed as inhibition of cell growth incubated for 48 hrs by MTT assay. It counts as functional, cell-based. As to conditions: U-937, 48 h.
A short description of series [19]: Safety index, ratio of IC50 for HEK293 cells to IC50 for human MCF7 cells. To be noted: HEK293 cells versus MCF7 cells, read-out: Ratio IC50. In kind it is toxicity.
Series [20] can be described thus: Safety index, ratio of IC50 for CHO-K1 cells to IC50 for human MCF7 cells. It counts as toxicity. To be noted: Chinese hamster (CHO-K1), CHO-K1 cells versus MCF7 cells, read-out: Ratio IC50.
Series [21] can be described thus: Safety index, ratio of IC50 for CHO-K1 cells to IC50 for human MDA-MB-231 cells. To be noted: Chinese hamster (CHO-K1), CHO-K1 cells versus MDA-MB-231 cells, read-out: Ratio IC50. It counts as toxicity.
Series [22] deals with DU-145. As to the kind of experiment: Cytotoxicity against human DU-145 cells assessed as inhibition of cell growth incubated for 48 hrs by MTT assay. In kind it is functional, cell-based. To be noted: DU-145, 48 h.
A short description of series [23]: Cytotoxicity against HEK293 cells assessed as inhibition of cell growth incubated for 48 hrs by MTT assay. It counts as toxicity, cell-based. To be noted: human.
Series [24] is described as follows: Safety index, ratio of IC50 for CHO-K1 cells to IC50 for human PANC-1 cells. It counts as toxicity. To be noted: Chinese hamster (CHO-K1), CHO-K1 cells versus PANC-1 cells, read-out: Ratio IC50.
Series [25] is described as follows: Cytotoxicity against CHO-K1 cells assessed as inhibition of cell growth incubated for 48 hrs by MTT assay. In kind it is toxicity, cell-based, Cricetulus griseus. As to conditions: Chinese hamster.
Series [26] can be described thus: Safety index, ratio of IC50 for HEK293 cells to IC50 for human HT-29 cells. As to conditions: HEK293 cells versus HT-29 cells, read-out: Ratio IC50. It counts as toxicity.
The nature of series [27]: Safety index, ratio of IC50 for CHO-K1 cells to IC50 for human U-937 cells. In kind it is toxicity. As to conditions: Chinese hamster (CHO-K1), CHO-K1 cells versus U-937 cells, read-out: Ratio IC50.
Series [28] is described as follows: Safety index, ratio of IC50 for CHO-K1 cells to IC50 for human DU-145 cells. In kind it is toxicity. As to conditions: Chinese hamster (CHO-K1), CHO-K1 cells versus DU-145 cells, read-out: Ratio IC50.
For series [29], the system named is MCF7. As to the kind of experiment: Cytotoxicity against human MCF7 cells assessed as inhibition of cell growth incubated for 48 hrs by MTT assay. In kind it is functional, cell-based. As to conditions: MCF7, 48 h.
The nature of series [30]: Safety index, ratio of IC50 for HEK293 cells to IC50 for human A549 cells. In kind it is toxicity. As to conditions: HEK293 cells versus A549 cells, read-out: Ratio IC50.
Series [31] has as its system PANC-1. As to the kind of experiment: Cytotoxicity against human PANC-1 cells assessed as inhibition of cell growth incubated for 48 hrs by MTT assay. In kind it is functional, cell-based. To be noted: PANC-1, 48 h.
For series [32], the system named is HT-29. As to the kind of experiment: Cytotoxicity against human HT-29 cells assessed as inhibition of cell growth incubated for 48 hrs by MTT assay. To be noted: HT-29, 48 h. In kind it is functional, cell-based.
Series [33] relates to MDA-MB-231. Kind of series: Cytotoxicity against human MDA-MB-231 cells assessed as inhibition of cell growth incubated for 48 hrs by MTT assay. It counts as functional, cell-based. As to conditions: MDA-MB-231, 48 h.
Series [34] in a line: Safety index, ratio of IC50 for HEK293 cells to IC50 for human PANC-1 cells. In kind it is toxicity. As to conditions: HEK293 cells versus PANC-1 cells, read-out: Ratio IC50.

Sequence of Platelet-derived growth factor receptor beta (P09619 whole entry): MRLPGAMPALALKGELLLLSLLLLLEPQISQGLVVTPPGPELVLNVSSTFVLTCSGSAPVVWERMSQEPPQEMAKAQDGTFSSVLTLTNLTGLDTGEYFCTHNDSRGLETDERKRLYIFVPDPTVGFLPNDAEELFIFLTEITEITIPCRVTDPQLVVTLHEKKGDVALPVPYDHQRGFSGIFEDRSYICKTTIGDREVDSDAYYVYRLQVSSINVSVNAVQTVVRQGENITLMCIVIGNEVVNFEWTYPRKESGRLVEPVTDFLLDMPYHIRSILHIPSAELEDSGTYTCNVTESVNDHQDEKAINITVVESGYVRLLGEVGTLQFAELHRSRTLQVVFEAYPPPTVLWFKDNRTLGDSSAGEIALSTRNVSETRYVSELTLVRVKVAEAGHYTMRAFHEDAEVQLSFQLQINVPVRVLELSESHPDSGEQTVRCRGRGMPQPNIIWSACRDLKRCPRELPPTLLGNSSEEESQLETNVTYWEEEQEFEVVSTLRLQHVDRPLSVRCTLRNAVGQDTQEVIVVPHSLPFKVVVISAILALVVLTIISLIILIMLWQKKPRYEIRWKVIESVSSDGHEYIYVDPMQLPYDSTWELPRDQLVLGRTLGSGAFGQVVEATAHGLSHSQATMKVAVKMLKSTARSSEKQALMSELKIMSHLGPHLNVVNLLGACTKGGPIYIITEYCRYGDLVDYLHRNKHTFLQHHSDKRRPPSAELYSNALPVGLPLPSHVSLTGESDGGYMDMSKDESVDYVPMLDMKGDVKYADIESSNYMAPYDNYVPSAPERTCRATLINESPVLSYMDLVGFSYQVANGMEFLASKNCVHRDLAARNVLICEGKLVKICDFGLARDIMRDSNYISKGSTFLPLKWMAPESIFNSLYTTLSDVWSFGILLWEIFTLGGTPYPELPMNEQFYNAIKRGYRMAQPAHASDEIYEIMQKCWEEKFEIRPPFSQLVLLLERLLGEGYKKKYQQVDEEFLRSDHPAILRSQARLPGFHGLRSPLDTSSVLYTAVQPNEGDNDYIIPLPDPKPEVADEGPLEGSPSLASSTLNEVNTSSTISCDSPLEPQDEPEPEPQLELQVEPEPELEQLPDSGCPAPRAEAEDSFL
Sequence of Vascular endothelial growth factor receptor 2 (P35968 whole entry): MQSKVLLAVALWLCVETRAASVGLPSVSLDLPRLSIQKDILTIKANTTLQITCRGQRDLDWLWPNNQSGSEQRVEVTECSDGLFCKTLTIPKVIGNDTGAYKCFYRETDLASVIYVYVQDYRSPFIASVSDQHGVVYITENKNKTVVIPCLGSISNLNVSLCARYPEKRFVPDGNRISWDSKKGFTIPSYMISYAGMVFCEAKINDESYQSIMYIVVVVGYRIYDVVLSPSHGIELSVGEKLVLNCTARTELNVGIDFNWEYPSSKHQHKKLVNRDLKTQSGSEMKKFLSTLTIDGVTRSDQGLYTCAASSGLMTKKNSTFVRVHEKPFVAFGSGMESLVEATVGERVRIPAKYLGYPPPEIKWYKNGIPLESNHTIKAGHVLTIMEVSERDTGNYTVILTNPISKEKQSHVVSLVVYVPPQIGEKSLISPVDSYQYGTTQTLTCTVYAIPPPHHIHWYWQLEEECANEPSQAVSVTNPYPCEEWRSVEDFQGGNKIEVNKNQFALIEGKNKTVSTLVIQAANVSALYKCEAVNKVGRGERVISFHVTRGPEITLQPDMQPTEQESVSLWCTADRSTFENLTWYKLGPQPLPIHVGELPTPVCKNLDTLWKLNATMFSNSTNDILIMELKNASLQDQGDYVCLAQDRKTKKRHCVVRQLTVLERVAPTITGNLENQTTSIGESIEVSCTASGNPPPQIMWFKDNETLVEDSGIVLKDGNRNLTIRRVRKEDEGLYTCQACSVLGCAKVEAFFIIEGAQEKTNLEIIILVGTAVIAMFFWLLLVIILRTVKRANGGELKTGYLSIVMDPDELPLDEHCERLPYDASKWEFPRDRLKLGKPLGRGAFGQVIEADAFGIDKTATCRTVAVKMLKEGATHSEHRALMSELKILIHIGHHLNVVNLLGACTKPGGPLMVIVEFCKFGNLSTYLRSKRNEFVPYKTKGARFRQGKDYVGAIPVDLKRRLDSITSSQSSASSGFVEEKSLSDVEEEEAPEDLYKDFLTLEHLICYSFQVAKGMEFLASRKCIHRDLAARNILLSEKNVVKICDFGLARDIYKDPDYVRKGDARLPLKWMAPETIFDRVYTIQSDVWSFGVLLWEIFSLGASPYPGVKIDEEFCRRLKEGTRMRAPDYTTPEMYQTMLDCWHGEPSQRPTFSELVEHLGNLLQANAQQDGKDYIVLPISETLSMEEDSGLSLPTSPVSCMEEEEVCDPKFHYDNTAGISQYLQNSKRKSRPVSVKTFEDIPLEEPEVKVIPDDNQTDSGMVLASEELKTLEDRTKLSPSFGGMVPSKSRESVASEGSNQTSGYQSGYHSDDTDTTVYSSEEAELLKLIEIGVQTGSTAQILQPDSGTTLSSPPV
Sequence of Mast/stem cell growth factor receptor Kit (P10721 whole entry): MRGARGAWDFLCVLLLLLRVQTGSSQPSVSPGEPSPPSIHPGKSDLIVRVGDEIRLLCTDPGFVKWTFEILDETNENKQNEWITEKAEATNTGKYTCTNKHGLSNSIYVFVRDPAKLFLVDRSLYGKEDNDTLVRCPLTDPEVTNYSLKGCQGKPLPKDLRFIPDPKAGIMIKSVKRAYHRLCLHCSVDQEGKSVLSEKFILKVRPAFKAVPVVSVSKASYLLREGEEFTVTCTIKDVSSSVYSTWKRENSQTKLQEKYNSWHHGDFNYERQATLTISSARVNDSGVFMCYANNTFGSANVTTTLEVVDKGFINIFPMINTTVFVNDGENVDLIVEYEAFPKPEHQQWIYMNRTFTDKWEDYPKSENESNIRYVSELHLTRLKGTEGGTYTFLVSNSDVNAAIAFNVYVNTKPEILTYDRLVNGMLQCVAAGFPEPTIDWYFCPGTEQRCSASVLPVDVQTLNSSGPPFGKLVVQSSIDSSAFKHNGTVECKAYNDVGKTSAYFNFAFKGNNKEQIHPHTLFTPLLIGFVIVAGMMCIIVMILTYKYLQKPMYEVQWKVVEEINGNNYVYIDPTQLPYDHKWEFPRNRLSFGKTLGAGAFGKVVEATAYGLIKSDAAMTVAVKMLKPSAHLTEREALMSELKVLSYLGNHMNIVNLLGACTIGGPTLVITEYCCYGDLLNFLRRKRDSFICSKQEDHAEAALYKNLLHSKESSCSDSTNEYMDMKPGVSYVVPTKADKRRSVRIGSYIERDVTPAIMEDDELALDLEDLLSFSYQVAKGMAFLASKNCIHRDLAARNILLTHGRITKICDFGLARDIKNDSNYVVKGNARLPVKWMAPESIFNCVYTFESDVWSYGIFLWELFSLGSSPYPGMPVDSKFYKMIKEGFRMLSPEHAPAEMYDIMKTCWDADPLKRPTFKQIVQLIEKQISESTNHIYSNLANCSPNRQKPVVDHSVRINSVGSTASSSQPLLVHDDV
Sequence of Macrophage colony-stimulating factor 1 receptor (P07333 whole entry): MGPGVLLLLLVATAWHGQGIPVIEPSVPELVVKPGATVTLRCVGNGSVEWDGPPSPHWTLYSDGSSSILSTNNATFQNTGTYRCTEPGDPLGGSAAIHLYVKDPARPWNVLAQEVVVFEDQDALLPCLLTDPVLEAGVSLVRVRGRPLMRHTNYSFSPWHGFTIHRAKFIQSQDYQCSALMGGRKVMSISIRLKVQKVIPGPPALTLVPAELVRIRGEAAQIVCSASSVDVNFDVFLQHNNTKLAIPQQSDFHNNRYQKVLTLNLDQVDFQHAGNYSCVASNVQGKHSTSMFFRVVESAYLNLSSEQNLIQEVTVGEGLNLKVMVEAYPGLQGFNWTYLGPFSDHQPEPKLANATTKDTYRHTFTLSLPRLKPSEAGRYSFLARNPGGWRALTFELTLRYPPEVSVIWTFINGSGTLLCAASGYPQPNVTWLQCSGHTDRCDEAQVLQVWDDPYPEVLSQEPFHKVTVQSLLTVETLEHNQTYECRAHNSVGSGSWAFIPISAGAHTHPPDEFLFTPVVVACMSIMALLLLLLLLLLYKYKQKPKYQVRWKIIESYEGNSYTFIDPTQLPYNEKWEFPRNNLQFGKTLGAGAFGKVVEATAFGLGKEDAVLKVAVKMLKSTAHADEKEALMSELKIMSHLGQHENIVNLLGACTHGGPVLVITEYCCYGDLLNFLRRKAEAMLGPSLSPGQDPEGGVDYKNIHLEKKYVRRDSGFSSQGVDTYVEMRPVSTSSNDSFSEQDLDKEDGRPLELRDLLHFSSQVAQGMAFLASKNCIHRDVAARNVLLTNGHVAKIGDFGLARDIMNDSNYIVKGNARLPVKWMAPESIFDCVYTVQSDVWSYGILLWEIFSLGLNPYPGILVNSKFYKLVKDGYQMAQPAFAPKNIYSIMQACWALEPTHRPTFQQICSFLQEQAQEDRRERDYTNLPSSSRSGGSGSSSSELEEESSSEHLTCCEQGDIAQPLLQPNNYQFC

As to `Nc1ccn([C@@H]2O[C@H](CO)[C@@H](O)C2(F)F)c(=O)n1` [GEMCITABINE], the survival at 50 mg/kg in series [1] came out at 80%. In addition, in series [2], the outcome was inactive.
Take `Cc1nc2c(c(C)c1O)/C(=C/c1ccc3ccccc3n1)C(=O)N2`: the 50% inhibitory concentration (IC50) – broadly, the concentration at which inhibition is half-maximal – in series [3] is 12.9 µM; in series [4] it was 1 µM; in series [5] it was 5.7 µM; in series [7] it was over 10 µM; in [8], 18.8 µM; in series [9], over 10 µM. Further, the survival at 3 mg/kg in [6] amounted to 100%.
Regarding `Cc1nc2c(c(C)c1O)/C(=C/c1cccnc1)C(=O)N2`, the inhibition – broadly, the percentage by which the read-out fell short of the control – at 30 µM worked out at 78% in series [10] and 72.8% in [14]. In addition, the half-maximal inhibitory concentration (IC50) in [11] turned out to be 13.8 µM; in series [18], 14.5 µM; in [22], 1.2 µM; in series [29] it was 17.4 µM; in series [31], 51.3 µM; in [32] it was 20 µM. In addition, the IC50 in [33] worked out at 9.6 µM. The selectivity ratio came to 3.4 in [12]; 3.9 in series [13]; 5.7 in series [15]; 27.5 in series [16]; 2.3 in series [17]; 1.9 in series [19]. The selectivity ratio in series [20] came to 4.5; in series [21], 8.2; in [24], 1.5; in series [26], 1.7; in series [27] it was 5.4; in [28] it was 65.4. Also, the figures for the selectivity ratio in series [30] and in series [34] were 2.4 and 0.6, respectively. Also, the concentration for half-maximal inhibition (IC50) at 48 h in series [23] came to 33 µM; in series [25], 78.5 µM.
On to `Cc1nc2c(c(C)c1O)/C(=C/c1ccc(N(C)C)cc1)C(=O)N2`, for which the values for the inhibition at 30 µM in series [10] and in [14] were 62.5% and 66.4%, respectively. The 50% inhibitory concentration (IC50) in series [11] was 13.2 µM; in series [18], over 90 µM; in [22], 1.1 µM; in series [29] it was 13.2 µM; in series [31], 13.8 µM; in [32] it was 36.3 µM. Also, in [33], the half-inhibitory concentration (IC50) was found to be 12.1 µM. For the same compound, the selectivity ratio in series [12] was over 7.4; in series [13] it was over 2.5; in [15], over 6.8; in series [16] it was over 81.8; in [17], over 1; in series [19] it was over 6.8. Further, the selectivity ratio was over 6.8 in series [20]; over 7.4 in series [21]; over 6.5 in series [24]; over 2.5 in series [26]; over 1 in [27]; over 81.8 in series [28]. The selectivity ratio was over 6.8 in series [30] and over 6.5 in series [34]. Further, the half-maximal inhibitory concentration (IC50) at 48 h in series [23] and in series [25] was over 90 µM each time.
